Experimental data taken from patent publication US11752155B2, “Treatment of autism spectrum disorders, obsessive-compulsive disorder and anxiety disorders” (Rugen Holdings (Cayman) Limited, priority 2016, dated 2023).
pIC50, pKi: −log10 of the molar value. Several values for one entry are separate records, joined by “and”; a condition that tells them apart may be missing. Equal entries are not always repeated. Structures can show the parent of a compound that is named as a salt. Where two headings read alike, the source gives them in different places.

Legend:
CYP2D6 = CYP2D6 (Homo sapiens (Human), UniProt P10635); experiment: CYP P450 enzyme inhibition in pooled human liver microsomes (dextromethorphan probe); type: in vitro ADME; conditions: for inhibition at 10 min, 10 µM: human, pooled human liver microsomes, pH 7.4, probe dextromethorphan, 5 μM, read-out: CYP2D6 Inhibiton at 10 μM; for pIC50: Table 1.4B
Procedure: Test compound concentration-dependent response studies were performed in triplicate.

[1] = molecular target: native rat brain NR2B receptors (Rattus norvegicus (Rat), UniProt P35439+Q00960); experiment: NR2B radioligand binding assay in rat brain using [3H] (E)-N1-(2-methoxybenzyl)-cinnamidine; conditions: rat brain NR2B receptors
Procedure: This example describes an NR2B receptor binding assay in rat brain using [^3H] […] The binding assay method was adapted from a previously described cellular human NR1a/NR2B cloned receptor assay (Kiss et al. Neurochem. Internatl. 2005, 46:453-464) to rat brain tissue. This assay serves as a selective measure of NR2B receptor binding activity in native rat brain receptors. Briefly, the brains of male Wistar rats were homogenized (Polytron) before centrifugation at 40,000×g for 15 minutes at 4° C. After 2 washes, the final pellet was homogenized and stored at −80° C. The protein concentration was determined by Bradford assay. [^3H] […] Non-specific binding was assessed in the presence of excess (10 μM) (E)-N1-(2-nethoxybenzyl)-cinnamidine.
Test compounds were solubilized at 10 mM in DMSO. Then the dilutions were performed with a constant solvent concentration (1% DMSO) in the assay. After incubation for 4.5 hours at room temperature, the assays were filtered on GF/3 filters pretreated with 0.3% (v/v) polyethylenimine (PEI) with a Packard system. The experiment was performed in duplicate (n=2).

hERG channel = hERG channel (Homo sapiens (Human), UniProt Q12809); experiment: hERG channel inhibition, whole cell patch clamp in HEK293 cells; type: cell-based; conditions: for inhibition at 5 min, 10 µM: human, HEK293 cells stably expressing hERG channel, pH 7.35; for pIC50: Table 1.3B
human NR1/NR2B = human NR1/NR2B (Homo sapiens (Human), UniProt Q05586+Q13224); experiment: NR2B antagonist activity: calcium influx (Fluo-4) assay in HEK293 cells; type: cell-based; conditions: read-out: NR2B IC50
Procedure: Activation of the NR2A or NR2B subtype of NMDA receptor with glutamate as an agonist and glycine co-agonist on these cells results in calcium influx, which can be monitored with fluorescent indicator Fluo-4.
For experiments, the cells were seeded onto poly-D-lysine-coated 96-well black plates with clear bottom (Corning) at a density of ˜50,000 cells/well. After overnight culture, the growth medium was removed from the wells and the cells were incubated at 37° C. for 60 minutes in Hanks buffer containing 4 μM fluo-4-AM (Invitrogen) and 0.1% bovine serum albumin (BSA). After dye-loading, the cells were washed three times with Hanks buffer and incubated for 10 minutes at room temperature with various concentrations of test compounds prepared in Hanks buffer with 0.1% BSA. The cell plates were placed onto an FDSS Cell fluorescence reader (Hamamatsu). After 20 seconds of reading background fluorescence, agonist glutamate at final 100 µM and co-agonist glycine at final 50 μM were added to the cells to activate the receptor, and the resulting fluorescence changes were recorded and quantified. Based on the changes in fluorescence intensity, the pharmacological effect of test compounds was analyzed and the IC50 values derived from a non-linear least squares fitting of the concentration-dependent response to a standard logistic equation using Prism (Graphpad Software, Inc.): Amplitude=Max Amplitude/(1+(IC50/[antagonist])^n).

[2] = system: wild type mice (male NMRI); experiment: Marble Burying Test in wild type mice; type: in vivo, mouse; conditions: for change in vivo at 0.1 mg/kg / change in vivo at 0.3 mg/kg / change in vivo at 3 mg/kg / change in vivo at 10 mg/kg / change in vivo at 1 mg/kg: Mus musculus, read-out: Percent Change in marbles buried relative to vehicle
Procedure: Animals. Male NMRI mice (20-30 g body weight) were obtained from Janvier Labs (Le Genest-Saint Isle, France) and allowed to acclimate to the animal facility for at least 5 days. Twelve mice were studied per treatment group.
Compound formulation. The test compounds were prepared in a vehicle of 0.5% DMSO and 4% HP-β-CD, and administered orally (PO) or IP. The test compounds or vehicle were administered 20 minutes before the behavioral test described below. Clobazam (8 mg/kg IP), administered 30 minutes before the test, was used as the positive reference compound.
Clobazam was dispersed in 0.2% hydroxypropylmethylcellulose (HPMC) in physiological saline. Dosing volume was 10 mL/kg.
Testing procedure. The Marble Burying Test was conducted as previously described by Broekkamp et al. (Eur. J. Pharmacol. 1986, 126:223-229). Mice exposed to small novel objects (marbles) will bury them in the sawdust floor covering. Anxiolytics decrease the number of marbles buried at non-sedating doses. Mice were individually placed in transparent plastic cages (33×21×18 cm) with 5 cm of sawdust on the floor and 25 marbles grouped in the center of the cage. The cage was covered with an inverted plastic cage. Each test cage, together with the marbles, was impregnated with mouse odor before-hand by leaving 10 mice in the cage for 15 minutes. These mice then played no further role in the experiment. The number of marbles covered by sawdust (⅔ or more) was counted at the end of the 30-minute test. The test was performed blind (compounds versus vehicle).
Statistical analyses. Data were analyzed by comparing test compound-treated groups with the vehicle control group using the Kruskal-Wallis test followed by post-hoc Mann-Whitney U tests. Data comparing the reference compound with the vehicle were analyzed using the Mann-Whitney U test. A p value<0.05 was considered significant.

[3] = system: wild type littermate mice; experiment: Grooming Test in wild type littermates of Sapap3 and Shank3 complete knockout mice; type: in vivo, mouse
Procedure: (§1) Animals. The breeding conditions and genotyping methods for Sapap3 and Shank3 complete knockout mice were the same as described in Welch et al. (Nature 2007, 448(7156):894-900) and in Wang et al. (Nat. Commun. 2016, 7:11459), respectively. Homozygous knockout mice and littermate wild type mice of both genders were used at 4 to 8 weeks of age.
(§2) Compound formulation. The test compounds were dissolved in a small volume of dimethyl sulfoxide (DMSO) and diluted in an aqueous solution of 2-hydroxypropyl-beta-cyclodextrin (HP-β-CD) and administered IP. Dosing volume was 10 mL/kg. At 20 minutes after dosing, the mice were subjected to the behavioral test as described below.
(§3) Testing room and apparatus. The test room was maintained under the same conditions as the colony rooms, except the mice were housed in conventional shoe-box cages with food, water, and nesting materials. Animals were housed in the test room 48-72 hours prior to testing, in order to permit the mice to fully acclimate to the test room and conventional housing cages before testing. Tests were conducted in white polyvinyl-fluoride hard-sided foam test arenas (20×20×12 cm). The arenas were indirectly illuminated by dimmable LED light bars placed level with the arena floor and 30 cm away from the external wall of the test arena. This permitted the internal area of the arena to be evenly illuminated at approximately 40 lux. The illumination levels where the mice were housed before testing were about 80-100 lux.
(§4) Testing procedure. Mice were carefully placed into the test arenas 20 minutes after compound administration. Animals were given free exploration of the arena for 10 minutes, after which they were gently sprayed with 4 quick pumps of a water mist (total water volume approximated 1.5-1.7 mL). Mice were then allowed an additional 10 minutes to self-groom and engage in other behaviors before being removed from the arena. All tests were videotaped using cameras mounted above the testing arena and were saved to digital media format using Noldus Media Player software (Noldus Information Technologies, Leesburg, Va.). The mice were only tested once in the acute studies and were repeatedly tested in the sustained effect studies.
(§5) Quantitation of grooming bouts. Analyses of the video recordings were conducted with TopScan behavioral recognition software (Cleversys Inc, Reston, Va.). Configurations were made which scored time spent in grooming. […] These settings permitted automated scoring of grooming by TopScan that corresponded well to manual-scoring of these behaviors by a trained blinded observer using Noldus Observer XT9 (Noldus Information Technologies), with an average corrected kappa of 0.925 (range 0.807-0.983).
(§6) Statistical analyses. Data are presented as means and standard error of the means (SEMs). Analyses were conducted using SPSS 23 (IBM SPSS Statistics, Chicago, Ill.). Time spent in grooming behavior (seconds) over the 10-minute pre- and post-spray time blocks were analyzed with repeated measures analyses of variance (RMANOVA). The pre- and post-spray times were used for the within subject effects and the genotype and compound treatment condition were used as the between subject effects. In sustained effect studies, days were also used for a within subject effect. Some analyses of total groom time were performed in Prism 7.01 (GraphPad Software, La Jolla, Calif.), with one-way ANOVAs to compare genotypes on Day 1 or with RMANOVAs to compare treatment groups within the same genotype across days. Treatments with compounds were compared independently with the vehicle. All post-hoc comparisons were performed with Bonferroni corrections for multiple comparisons to avoid a Type I error. In all cases, a p<0.05 was considered significant.
The wild type littermates of the Sapap3 knockout and Shank3 complete knockout mice were retested after Day 1 compound administration to determine whether the sustained effects were unique to the knockout mice. […]

Sapap3 knockout mice = experiment: Grooming Test in Sapap3 knockout mice; type: in vivo, mouse
Procedure: as §1, §2, §3, §4, §5, §6
Next, the effect of two subunit-selective NR2B antagonists administered as a single IP dose and assessed 20 minutes postdose was studied in the Sapap3 knockout mice (n=6-10 mice per treatment group). […]

[4] = mean of replicates, read-out: Arithmetic Mean Ki

Chain of human NR1/NR2B (Q13224 27-1484, other chains not shown): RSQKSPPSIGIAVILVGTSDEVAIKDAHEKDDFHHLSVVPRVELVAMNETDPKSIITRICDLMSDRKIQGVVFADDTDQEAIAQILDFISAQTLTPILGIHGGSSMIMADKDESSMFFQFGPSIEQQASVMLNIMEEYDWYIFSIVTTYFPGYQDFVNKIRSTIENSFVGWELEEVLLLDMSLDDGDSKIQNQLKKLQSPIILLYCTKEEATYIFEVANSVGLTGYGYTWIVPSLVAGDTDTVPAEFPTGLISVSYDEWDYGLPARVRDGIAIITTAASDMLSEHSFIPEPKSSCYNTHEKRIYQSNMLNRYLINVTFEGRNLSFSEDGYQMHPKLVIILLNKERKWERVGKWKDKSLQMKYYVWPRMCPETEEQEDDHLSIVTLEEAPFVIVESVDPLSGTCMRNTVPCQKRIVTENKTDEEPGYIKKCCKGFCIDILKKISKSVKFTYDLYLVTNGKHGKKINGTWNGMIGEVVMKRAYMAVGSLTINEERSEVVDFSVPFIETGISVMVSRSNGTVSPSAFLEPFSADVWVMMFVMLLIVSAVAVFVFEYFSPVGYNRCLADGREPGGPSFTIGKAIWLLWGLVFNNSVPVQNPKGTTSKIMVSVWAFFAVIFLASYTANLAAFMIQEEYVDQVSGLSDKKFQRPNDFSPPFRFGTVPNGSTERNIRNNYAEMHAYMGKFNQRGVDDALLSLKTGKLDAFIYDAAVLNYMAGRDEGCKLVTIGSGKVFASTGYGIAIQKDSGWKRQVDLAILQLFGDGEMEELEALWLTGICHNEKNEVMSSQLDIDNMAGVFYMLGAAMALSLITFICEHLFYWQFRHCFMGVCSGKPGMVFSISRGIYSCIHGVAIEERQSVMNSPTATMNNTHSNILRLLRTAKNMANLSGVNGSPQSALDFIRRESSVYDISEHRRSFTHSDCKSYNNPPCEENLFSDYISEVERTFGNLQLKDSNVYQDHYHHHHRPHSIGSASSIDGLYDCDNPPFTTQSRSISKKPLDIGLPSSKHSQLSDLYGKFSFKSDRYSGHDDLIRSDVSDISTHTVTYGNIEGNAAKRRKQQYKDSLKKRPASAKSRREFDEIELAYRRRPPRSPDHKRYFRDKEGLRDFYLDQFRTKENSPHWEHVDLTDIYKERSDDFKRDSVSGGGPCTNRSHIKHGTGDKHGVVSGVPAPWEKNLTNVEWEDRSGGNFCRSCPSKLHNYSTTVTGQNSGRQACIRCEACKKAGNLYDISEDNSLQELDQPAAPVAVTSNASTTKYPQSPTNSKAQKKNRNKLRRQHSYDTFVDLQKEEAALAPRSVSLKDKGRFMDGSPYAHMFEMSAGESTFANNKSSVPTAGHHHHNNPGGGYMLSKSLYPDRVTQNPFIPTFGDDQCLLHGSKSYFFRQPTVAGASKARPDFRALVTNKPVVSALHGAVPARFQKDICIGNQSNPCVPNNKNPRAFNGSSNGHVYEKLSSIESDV
Chain of native rat brain NR2B receptors (Q00960 27-1482, other chains not shown): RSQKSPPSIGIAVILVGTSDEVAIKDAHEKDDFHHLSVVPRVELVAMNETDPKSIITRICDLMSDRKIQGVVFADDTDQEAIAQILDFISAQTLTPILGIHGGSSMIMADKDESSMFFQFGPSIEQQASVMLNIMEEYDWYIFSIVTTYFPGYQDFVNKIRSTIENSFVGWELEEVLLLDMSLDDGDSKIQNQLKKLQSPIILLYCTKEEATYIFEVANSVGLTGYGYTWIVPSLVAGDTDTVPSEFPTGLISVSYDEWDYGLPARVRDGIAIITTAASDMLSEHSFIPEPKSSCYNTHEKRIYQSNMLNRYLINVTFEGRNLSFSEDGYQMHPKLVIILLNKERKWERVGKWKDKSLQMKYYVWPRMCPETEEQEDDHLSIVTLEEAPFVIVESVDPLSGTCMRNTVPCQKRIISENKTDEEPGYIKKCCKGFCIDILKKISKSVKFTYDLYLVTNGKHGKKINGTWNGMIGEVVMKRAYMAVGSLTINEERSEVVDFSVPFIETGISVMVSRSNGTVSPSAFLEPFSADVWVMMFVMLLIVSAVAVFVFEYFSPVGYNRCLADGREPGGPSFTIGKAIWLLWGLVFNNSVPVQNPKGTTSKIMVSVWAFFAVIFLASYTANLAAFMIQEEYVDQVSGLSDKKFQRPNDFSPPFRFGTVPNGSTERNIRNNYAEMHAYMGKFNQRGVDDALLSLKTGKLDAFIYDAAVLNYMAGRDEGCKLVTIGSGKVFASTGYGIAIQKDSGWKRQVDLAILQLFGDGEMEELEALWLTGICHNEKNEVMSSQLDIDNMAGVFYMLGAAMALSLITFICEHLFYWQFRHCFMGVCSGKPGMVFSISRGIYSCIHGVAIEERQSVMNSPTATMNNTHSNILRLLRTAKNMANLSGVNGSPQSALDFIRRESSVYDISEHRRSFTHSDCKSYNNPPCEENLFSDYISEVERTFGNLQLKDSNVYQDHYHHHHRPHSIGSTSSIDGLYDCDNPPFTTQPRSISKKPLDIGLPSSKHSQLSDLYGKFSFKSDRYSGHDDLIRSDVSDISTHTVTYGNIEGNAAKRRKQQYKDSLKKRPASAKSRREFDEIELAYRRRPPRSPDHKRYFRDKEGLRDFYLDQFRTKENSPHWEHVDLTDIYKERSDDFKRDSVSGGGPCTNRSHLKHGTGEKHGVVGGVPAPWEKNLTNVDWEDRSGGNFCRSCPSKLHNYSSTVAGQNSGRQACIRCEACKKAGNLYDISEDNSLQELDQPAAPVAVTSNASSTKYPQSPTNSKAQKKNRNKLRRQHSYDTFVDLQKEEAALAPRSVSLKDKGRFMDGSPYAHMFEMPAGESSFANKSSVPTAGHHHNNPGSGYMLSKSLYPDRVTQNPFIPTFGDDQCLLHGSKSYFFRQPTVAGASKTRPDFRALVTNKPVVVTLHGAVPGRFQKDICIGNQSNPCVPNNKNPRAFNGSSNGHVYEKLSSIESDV
Chain of hERG channel (Q12809 whole entry): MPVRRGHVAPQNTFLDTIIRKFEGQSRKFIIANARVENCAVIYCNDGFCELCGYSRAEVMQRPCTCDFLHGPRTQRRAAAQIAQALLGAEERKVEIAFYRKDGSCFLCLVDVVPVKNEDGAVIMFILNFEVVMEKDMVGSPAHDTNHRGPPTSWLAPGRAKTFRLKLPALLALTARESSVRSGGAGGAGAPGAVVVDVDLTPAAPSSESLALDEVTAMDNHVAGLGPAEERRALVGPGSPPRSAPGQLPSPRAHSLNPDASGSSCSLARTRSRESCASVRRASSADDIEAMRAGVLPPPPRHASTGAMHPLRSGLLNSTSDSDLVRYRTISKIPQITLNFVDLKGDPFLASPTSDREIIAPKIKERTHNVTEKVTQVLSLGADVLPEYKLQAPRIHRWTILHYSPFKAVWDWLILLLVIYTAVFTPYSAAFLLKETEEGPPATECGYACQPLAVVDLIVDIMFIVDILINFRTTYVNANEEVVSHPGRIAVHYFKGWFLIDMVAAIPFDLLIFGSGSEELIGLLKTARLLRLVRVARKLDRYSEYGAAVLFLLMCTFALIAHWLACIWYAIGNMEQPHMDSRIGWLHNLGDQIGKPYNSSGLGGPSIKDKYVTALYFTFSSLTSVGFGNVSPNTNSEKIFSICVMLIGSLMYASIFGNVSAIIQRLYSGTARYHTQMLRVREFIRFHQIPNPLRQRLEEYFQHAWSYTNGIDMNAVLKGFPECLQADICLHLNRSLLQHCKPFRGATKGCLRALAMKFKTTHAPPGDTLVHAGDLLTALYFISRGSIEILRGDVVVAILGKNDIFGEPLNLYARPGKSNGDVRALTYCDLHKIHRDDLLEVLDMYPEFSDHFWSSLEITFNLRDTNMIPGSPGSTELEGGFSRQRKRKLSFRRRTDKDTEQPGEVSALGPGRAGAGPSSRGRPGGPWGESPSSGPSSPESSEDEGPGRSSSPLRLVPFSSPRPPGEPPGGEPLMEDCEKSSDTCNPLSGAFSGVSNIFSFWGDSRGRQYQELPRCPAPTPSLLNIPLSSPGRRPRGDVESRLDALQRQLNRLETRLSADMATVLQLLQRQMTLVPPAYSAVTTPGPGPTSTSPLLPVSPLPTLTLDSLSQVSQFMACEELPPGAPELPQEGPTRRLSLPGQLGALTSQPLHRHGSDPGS
Chain of CYP2D6 (P10635 whole entry): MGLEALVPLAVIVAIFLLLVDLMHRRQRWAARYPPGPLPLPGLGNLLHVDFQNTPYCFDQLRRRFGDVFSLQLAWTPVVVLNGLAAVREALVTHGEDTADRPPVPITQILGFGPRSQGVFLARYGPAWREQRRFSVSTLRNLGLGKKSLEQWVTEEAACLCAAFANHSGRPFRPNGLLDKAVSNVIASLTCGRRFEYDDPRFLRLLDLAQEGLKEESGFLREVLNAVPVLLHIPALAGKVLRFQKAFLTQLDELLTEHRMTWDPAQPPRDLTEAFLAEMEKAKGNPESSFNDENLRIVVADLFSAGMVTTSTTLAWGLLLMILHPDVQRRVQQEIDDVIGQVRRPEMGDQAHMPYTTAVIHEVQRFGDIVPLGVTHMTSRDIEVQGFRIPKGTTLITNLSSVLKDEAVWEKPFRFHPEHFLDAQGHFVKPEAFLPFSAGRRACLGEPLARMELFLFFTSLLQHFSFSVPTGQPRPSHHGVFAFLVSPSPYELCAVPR

Row | inhibition at 10 min, 10 µM (CYP2D6) [%] | pKi [1, 4] | pIC50 (human NR1/NR2B; Table 1.1B) | pIC50 (human NR1/NR2B; Table 1.3B) | pIC50 (human NR1/NR2B; Table 1.4B) | pIC50 (CYP2D6) | SMILES | inhibition at 5 min, 10 µM (hERG channel) [%] | pIC50 (hERG channel) | change in vivo at 0.3 mg/kg ([2]; ip) [%] | change in vivo at 3 mg/kg ([2]; ip) [%] | other results
1 | 37 | 8.06 | 7.83 | 7.83 | 7.83 | – | O=C(OCc1ccc(Cl)cc1)N1CC[C@H](CNc2nccn3cnnc23)C(F)(F)C1 [E1-1.3^B′] | 19 | – | – | – | –
2 | 19 | – | 7.69 | 7.69 | 7.69 | – | O=C(OCc1ccc(F)cc1)N1CC[C@H](CNc2nccn3cnnc23)C(F)(F)C1 [E1-1.4^B′] | 11 | – | – | – | –
3 | 97 | – | 7.86 | 7.86 | 7.86 | – | Cc1ccc(COC(=O)N2CC[C@H](CNc3cnccn3)C(F)(F)C2)cc1 [E1-21.2^B′] | 27 | – | – | – | –
4 | – | – | – | – | – | 4.54 | CCc1ccc(COC(=O)N2CC[C@H](CNc3ncccn3)C(F)(F)C2)cc1 [E1-22.5^B′, (R)-4-ethylbenzyl 3,3-difluoro-4-((pyrimidin-2-ylamino)methyl)piperidine-1-carboxylate methanesulfonate] | – | 5.04 | 8 | -100 | change in vivo at 0.1 mg/kg ([2]; ip): -9%; change in vivo at 10 mg/kg ([2]; ip): -100%; change in vivo at 0.3 mg/kg ([2]; po): -11%; change in vivo at 1 mg/kg ([2]; po): -15%; change in vivo at 3 mg/kg ([2]; po): -76%; efficacy in the Marble Burying Test ([2]; lowest test concentration of 1 mg/kg, IP): fully efficacious
5 | – | – | – | – | – | 4.39 | O=C(OCc1ccc(C(F)F)cc1)N1CC[C@H](CNc2ncccn2)C(F)(F)C1 [E1-22.6^B′, (R)-4-(difluoromethyl)benzyl 3,3-difluoro-4-((pyrimidin-2-ylamino)methyl)piperidine-1-carboxylate mesylate] | – | 5.14 | -95 | -98 | change in vivo at 0.1 mg/kg ([2]; ip): -30%; change in vivo at 10 mg/kg ([2]; ip): -100%; effect on grooming on Day 3 ([3]; 1 mg/kg IP on Day 1, wild type littermates): did not show an effect; effect on grooming on Day 1 ([3]; 1 mg/kg IP, wild type littermates): significant reduction in grooming; effect on grooming on Day 5 ([3]; 3 mg/kg IP on Day 1, wild type littermates): significantly increased grooming; effect on grooming on Day 3 ([3]; 3 mg/kg IP on Day 1, wild type littermates, mesylate): significantly reduced grooming; acute effect on grooming on Day 1 ([3]; wild type littermates of Sapap3 knockout mice, dose-dependent): significantly reduced grooming; significantly reduced grooming through Day (Sapap3 knockout mice; first dose 3 mg/kg IP on Day 1): 15 days; acute effect on excessive self-grooming (Sapap3 knockout mice; single IP dose, 20 min postdose, Day 1): significantly reduced grooming; significantly reduced grooming through Day (Sapap3 knockout mice; single dose 1 mg/kg IP on Day 1): 15 days
6 | – | 8.19 | – | – | – | 5.01 | Cc1ccc(COC(=O)N2CC[C@H](CNc3ccc(C)cn3)C(F)(F)C2)cc1 [E1-23.26^B′, (R)-4-methylbenzyl 3,3-difluoro-4-(((5-methylpyridin-2-yl)amino)methyl)piperidine-1-carboxylate] | – | – | – | – | –
7 | – | 8.55 | – | – | – | 4.82 | Cc1ccc(COC(=O)N2CC[C@H](CNc3cccnn3)C(F)(F)C2)cc1 [E1-24.2^B′, (R)-4-methylbenzyl 3,3-difluoro-4-((pyridazin-3-ylamino)methyl)piperidine-1-carboxylate] | – | 4.60 | – | – | pKi ([1]; individual replicate, read-out: Ki, result from each assay): 8.68 and 8.44
8 | – | – | – | – | – | 5.83 | Cc1ccc(COC(=O)N2CC[C@H](CNc3ccncc3)C(F)(F)C2)cc1 [E1-38.2^B′, (R)-4-methylbenzyl 3,3-difluoro-4-((pyridin-4-ylamino)methyl)piperidine-1-carboxylate methanesulfonate] | – | 5.54 | 4 | -76 | change in vivo at 1 mg/kg ([2]; ip): -18%
